We go through ten compounds from PubChem BioAssay (NCI).

Assay in all cases: NCI-60 cell line screen, 48 h
Assay [1] has as its system LXFL 529 NSCLC.
Assay [2] has as its system DMS 114 small cell lung.
Assay [3] has as its system DMS 273 small cell lung.
The subject of assay [4] is UACC-62 melanoma.
Assay [5] relates to SF-268 CNS.
In assay [6] the test system is K-562 leukemia.
Assay [7] relates to M19-MEL melanoma.
Assay [8] deals with HOP-18 NSCLC.
For assay [9], the system named is KM12 colon.
Assay [10] relates to SNB-78 CNS.
For assay [11], the system named is DLD-1 colon.
Assay [12] deals with NCI-H460 lung.
Assay [13] relates to KM20L2 colon.
Assay [14] deals with RXF-631 renal.
For assay [15], the system named is XF 498 CNS.

Each structure is given as a SMILES string.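 In this assay, cells in 96-well plates receive the compound at five concentrations for 48 hours. Endpoints are linearly interpolated between the surrounding concentrations. Definition used: TGI = concentration required for complete inhibition of growth.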 Where only a bound is given, the exact number is not on record here.

Consider `CCCCCCCC(CC(=O)NC(CO)C(=O)NC(CO)CC(C)C)OC(=O)CC(CCCCCCC)OC(=O)CC(CCCCCCC)OC1OC(C)C(O)C(OC2OC(C)C(O)C(O)C2O)C1O` (stereo not given), for which the TGI in [1] is 18.1 µM; in assay [2], 16.5 µM; in assay [3], 24 µM; in assay [4], 27.9 µM; in assay [5], 23.2 µM; in assay [6], 25.7 µM. Also, the TGI in assay [7] came to 23.3 µM; in [8], 32.1 µM; in assay [9] it was 26.3 µM; in assay [10], 39.1 µM; in assay [11] it was 31.7 µM; in assay [12], 19.1 µM. Besides, the TGI in [13] stood at 32.1 µM.

For `COc1ccc2[nH]c3c4c(cc(-c5ccccc5)c3c2c1)C(=O)N(c1ccccc1)C4=O`, the TGI is 64.3 µM in assay [1]; over 100 µM in assay [2]; 36.8 µM in [3]; over 90.6 µM in assay [4]; 97.1 µM in assay [5]; over 100 µM in [6]. Also, the TGI in [7] is over 100 µM; in assay [8], over 100 µM; in [9] it was over 100 µM; in assay [10], over 88.3 µM; in assay [11] it was over 100 µM; in assay [12] it was over 100 µM. The TGI in assay [13] is over 100 µM.

For the compound `O=C(Cc1ccccc1)N/N=C(/c1nc2ccc([N+](=O)[O-])cc2[nH]c1=O)C(O)c1ccc(C(O)/C(=N/NC(=O)Cc2ccccc2)c2nc3ccc([N+](=O)[O-])cc3[nH]c2=O)cc1` (stereo not given), the TGI in assay [1], in assay [2], in assay [4], in assay [5], in assay [14] and in [15] was over 100 µM each time. The TGI in [6], in [7], in assay [11] and in assay [13] was over 100 µM in each case.

On to `O=C1Oc2cc3c(c4cccc1c24)OCN(c1ccccc1)C3`, for which the TGI in assay [1], in [2], in assay [3], in assay [4], in [5] and in [15] was over 100 µM each time. Moreover, the TGI in assay [6] is 63 µM; in [7], over 100 µM; in [9], over 100 µM; in [11] it was over 100 µM; in assay [12] it was over 100 µM; in [13], over 100 µM.

Take `CC(=O)Oc1ccc(Nn2c3ccccc3c3ccccc32)c(C)c1`: the TGI in assay [1] is over 100 µM; in assay [2] it was 79.8 µM; in assay [3], 51.9 µM; in assay [4], over 100 µM; in assay [5], over 100 µM; in assay [15], 77.3 µM. In addition, the TGI was over 100 µM in assay [6]; over 100 µM in [7]; 75.8 µM in assay [8]; over 100 µM in assay [9]; 91.2 µM in assay [10]; over 100 µM in assay [11]. The TGI in assay [12] was over 100 µM; in assay [13], 78.9 µM.

Take `O=[N+]([O-])c1ccc(CN=C2NNS(=O)(=O)c3ccccc32)cc1`: the TGI in assay [1], in assay [2], in [3], in assay [4], in [5] and in assay [14] was over 100 µM each time. Moreover, the TGI in assay [15], in assay [6], in [7], in assay [9], in [10] and in [11] was over 100 µM each time. Further, the TGI in assay [12] and in assay [13] was over 100 µM each time.

`Cc1ccc(C(=O)N2CCCCC2)cc1N=NN(C)C`: the TGI in assay [1], in assay [2], in assay [3], in [4], in [5] and in [6] was over 100 µM in each case. For the same compound, the TGI in assay [7], in assay [9], in assay [11] and in [12] was over 100 µM throughout.

For `CCCCCC#COC1CC(C)CC[C@@H]1C(C)C` (stereo not given in full), the TGI in assay [1], in assay [3], in assay [4], in [5], in assay [6] and in [7] was over 100 µM throughout. For the same compound, the TGI was over 100 µM in assay [8]; over 100 µM in [9]; over 100 µM in [10]; over 100 µM in [11]; 55.4 µM in [12]; over 100 µM in [13].

On to `O=C(CCN1CCC(CCO)CC1)Nc1ccc2c(c1)C(=O)c1ccc(NC(=O)CCN3CCC(CCO)CC3)cc1C2=O`, for which the TGI is 19.8 µM in assay [1]; 21.7 µM in assay [2]; 19.8 µM in assay [3]; 38.4 µM in assay [4]; 45.7 µM in [5]; 42.6 µM in assay [6]. The TGI in assay [7] is over 100 µM; in assay [8] it was 80.1 µM; in assay [9], 10.5 µM; in assay [10], 21.6 µM; in assay [11] it was 22.2 µM; in assay [12], 15.5 µM. Moreover, in assay [13], the TGI was determined as 77.8 µM.

Regarding `COC1=CC(=O)c2c(cc3c(c2O)-c2c(OC)cc4cc5c(c(O)c4c2OC(=O)CC(C)(O)C3)C(=O)CC(C)(O)C5)C1=O` (stereo not given), the TGI came to 4.6 µM in assay [1]; 3.58 µM in assay [2]; 5.31 µM in [3]; 2.57 µM in assay [4]; 9.26 µM in assay [5]; 3.23 µM in assay [15]. The TGI in [6] is 12.6 µM; in assay [7], 1.52 µM; in assay [8], 5.39 µM; in [9], 8.98 µM; in assay [10] it was 7.12 µM; in assay [11], 9.01 µM. The results for the TGI in assay [12] and in assay [13] were 5.24 µM and 5.29 µM, respectively.
